US10738031B2, “N-[(heteroaryloxy)propanyl]heteroaryl carboxamides as antagonists of orexin subtype 1 receptor activity” (Boehringer Ingelheim International GmbH, priority 2016, dated 2020)

How the values were obtained:
human orexin 2 receptor = molecular target: T1, human orexin 2 receptor (Homo sapiens, UniProt O43614); test: Assay B: OX2R IP1 (in vitro OX2R potency); assay type: cell-based; conditions: Table 3; 0.5 nM Orexin A concentration
T1 construct: stably expressing the full-length human orexin 2 receptor; expressed in transfected cells; host or cells: CHO-K1 (CHO-K1/hOX2), co-expressing aequorin
T1 sequence (O43614 1-444): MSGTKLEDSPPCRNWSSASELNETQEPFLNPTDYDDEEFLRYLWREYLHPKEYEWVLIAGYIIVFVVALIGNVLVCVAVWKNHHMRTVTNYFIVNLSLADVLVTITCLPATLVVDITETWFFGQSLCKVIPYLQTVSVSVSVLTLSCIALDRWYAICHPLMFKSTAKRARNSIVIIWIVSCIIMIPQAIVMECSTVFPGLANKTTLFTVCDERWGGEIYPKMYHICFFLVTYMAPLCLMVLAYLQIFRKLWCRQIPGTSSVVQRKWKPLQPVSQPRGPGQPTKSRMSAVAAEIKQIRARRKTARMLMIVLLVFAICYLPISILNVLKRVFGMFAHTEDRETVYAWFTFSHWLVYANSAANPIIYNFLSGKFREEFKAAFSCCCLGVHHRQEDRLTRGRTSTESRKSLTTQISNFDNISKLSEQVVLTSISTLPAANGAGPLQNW
Text: Activation of the orexin receptors expressed in cell lines results in an increase in intracellular IP3 concentration. IP1, a downstream metabolite of IP3, accumulates in cells following receptor activation and is stable in the presence of LiCl. Using Homogeneous Time-Resolved Fluorescence technology with Lumi4-Tb cryptate (commercially available from Cisbio Bioassay.) and a suitable fluorescence plate reader. This functional response is detectable and quantifiable as described in Trinquet et al. Anal. […] Curr. Chem. Genomics 2009, 3, 22-32. This technique is used to characterize pharmacological modification of the orexin receptors. B. In Vitro Testing of OX2R Potency: OX2R IP1 IP1 measurements are performed in CHO-K1 cells stably expressing the full-length human orexin 2 receptor and the aequorin photoprotein. Cells are cultivated in Ham's nutrient mixture F12 medium with 10% fetal calf serum, in a 37° C., 95% humidity and 5% CO2 incubator. The CHO-K1/hOX2 cell mass is expanded to larger cell numbers. The cells are obtained as frozen cells in cryo-vials and stored until use at -150° C. The viability of the cells after thawing is >90%. In preparation for the assay, 24 hours before the assay, the cells are thawed at 37° C. and immediately diluted with cell culture medium. After centrifugation, the cell pellet is resuspended in medium and then distributed into the assay plates with a density of 5000 cells/25 μL per well. The plates are incubated for one hour at room temperature to reduce edge effects before they are incubated for 24 hours at 37° C./5% CO2. […] On the day of the assay, cells in the plate are washed twice with 60 μL assay buffer (20 μL buffer remained in the wells after washing), followed by adding 5 μL per well of compounds diluted in assay buffer. […] The assay plate is incubated for 60 minutes at 37° C. Then 5 μL per well of Anti-IP1-Cryptate Tb solution and 5 μL per well of IP1-d2 dilution are added to all well of the plate and the plate is incubated for a further 60 minutes light protected at room temperature. […] The ratio between the emission at 665 nm and 615 is calculated by the reader. […] AssayExplorer (Accelrys). In order to establish an agonist concentration independent parameter, Kb values are calculated using the following equation: […] Sci. 1993, 14(4), 110-112).

[1] = Assay C: Human MST t1/2 (stability in human liver microsomes); assay type: in vitro ADME; conditions: human liver microsomes
human Orexin 1 receptor = molecular target: T2, human Orexin 1 receptor (Homo sapiens, UniProt O43613); test: Assay A: OX1R IP1 (in vitro OX1R potency); assay type: cell-based; conditions: for Kb: Table 3
T2 construct: stably expressing the full-length human Orexin 1 receptor; expressed in transfected cells; host or cells: CHO-K1 (CHO-K1/hOX1), co-expressing aequorin
T2 sequence (O43613 1-425): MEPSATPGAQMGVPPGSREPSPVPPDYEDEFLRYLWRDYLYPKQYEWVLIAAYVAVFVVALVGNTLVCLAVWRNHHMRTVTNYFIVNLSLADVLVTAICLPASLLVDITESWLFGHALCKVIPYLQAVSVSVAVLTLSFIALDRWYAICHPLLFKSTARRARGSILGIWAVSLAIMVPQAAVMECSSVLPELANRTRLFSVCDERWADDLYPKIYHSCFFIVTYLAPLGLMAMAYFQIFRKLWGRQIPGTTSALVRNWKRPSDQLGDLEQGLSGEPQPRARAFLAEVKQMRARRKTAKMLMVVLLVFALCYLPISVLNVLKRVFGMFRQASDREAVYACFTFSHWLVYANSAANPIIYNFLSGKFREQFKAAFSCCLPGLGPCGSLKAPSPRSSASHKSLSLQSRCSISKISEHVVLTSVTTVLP

| Compound | Kb (human orexin 2 receptor) [nM] | half-life [1] [min] | OX2R Kb/OX1R Kb (human Orexin 1 receptor) | Kb (human Orexin 1 receptor; Orexin A concentration 0.5 nM) [nM] | Kb (human Orexin 1 receptor; Orexin A concentration 50 nM) [nM] |
| --- | --- | --- | --- | --- | --- |
| CC[C@@H](CNc1ccc(C(F)(F)F)cn1)N(CC)C(=O)c1nc(C)ccc1-n1nccn1 [Ex 71 in WO2016/ 034882, reference compound] | 27 | 4.5 | – | – | – |
| CCN(C(=O)c1cc(C(F)(F)F)cnc1-n1cccn1)[C@@H](C)COc1ccc(C(F)(F)F)cn1 [Example 3] | 212 | 83 | 177 | 1.2 | 1.2 |
| CCN(C(=O)c1nc(C)ccc1-n1nccn1)[C@@H](C)COc1ccc(C(F)(F)F)cn1 [Example 5] | 59 | 25 | 393 | – | 0.15 |
| CCN(C(=O)c1cc(F)cnc1-n1nccn1)[C@@H](C)COc1ccc(C(F)(F)F)cn1 [Example 6] | 844 | > 130 | – | 1.2 | 1.5 |
| CCN(C(=O)c1nc(C)ccc1-n1nccn1)[C@@H](C)COc1ccc(Cl)cn1 [Example 8] | 71 | 25 | 158 | – | 0.45 |
| CCN(C(=O)c1cnc(C)nc1-c1ccccc1)[C@@H](C)COc1cnc(C(F)(F)F)cn1 [Example 9] | 939 | > 130 | 522 | 1.8 | – |
| CCN(C(=O)c1nc(C)ccc1-n1nccn1)[C@@H](C)COc1cnc(C(F)(F)F)cn1 [Example 10] | 749 | > 130 | 300 | 2.5 | – |
| CCN(C(=O)c1cnc(C)nc1-c1ccccc1)[C@@H](C)COc1ncc(C(F)(F)F)cn1 [Example 11] | 1290 | 88 | 860 | 1.5 | – |
| CCN(C(=O)c1nc(C)ccc1-n1nccn1)[C@@H](C)COc1ncc(C(F)(F)F)cc1F [Example 12] | 206 | 13 | 268 | 0.77 | – |
| CCN(C(=O)c1ncccc1-c1ccccc1)[C@@H](C)COc1ncc(C(F)(F)F)cn1 [Example 15] | 705 | 96 | 157 | 4.5 | – |
| CCN(C(=O)c1ccc(C)nc1-n1nccn1)[C@@H](C)COc1ccc(C(F)(F)F)cn1 [Example 17] | 356 | 59 | 1618 | – | 0.22 |
| CCN(C(=O)c1ncc(C)cc1-c1ccn(C)n1)[C@@H](C)COc1ccc(C(F)(F)F)cn1 [Example 20] | 415 | 24 | 1660 | – | 0.25 |
| CCN(C(=O)c1cc(F)cnc1-n1nccn1)[C@@H](C)COc1ncc(C(F)(F)F)cc1F [Example 21] | 2700 | > 130 | 817 | 3.3 | – |
| CCN(C(=O)c1cc(F)cnc1-n1nccn1)[C@@H](C)COc1ccc(Cl)cn1 [Example 22] | 1010 | 82 | 215 | 4.7 | – |
| CCN(C(=O)c1nc(C)ccc1-n1nccn1)[C@@H](C)COc1ncc(C(F)(F)F)cn1 [Example 23] | 2900 | 110 | 439 | 6.6 | – |
| CCN(C(=O)c1c(F)cncc1-n1cccn1)[C@@H](C)COc1ccc(C(F)(F)F)cn1 [Example 24] | 1070 | 29 | 167 | 6.4 | – |
| CCN(C(=O)c1ncccc1-n1nccn1)[C@@H](C)COc1ccc(C(F)(F)F)cn1 [Example 26] | 267 | > 130 | 281 | 0.95 | – |
| CCN(C(=O)c1cc(C)cnc1-c1ccn(C)n1)[C@@H](C)COc1ccc(C(F)(F)F)cn1 [Example 27] | 134 | 31 | – | 0.87 | 0.69 |
| CCN(C(=O)c1ccc(C(F)(F)F)nc1-c1ccn(C)n1)[C@@H](C)COc1ccc(C(F)(F)F)cn1 [Example 28] | 705 | 11 | 353 | 2 | – |
| CCN(C(=O)c1ccncc1-c1ccn(C)n1)[C@@H](C)COc1ccc(C(F)(F)F)cn1 [Example 29] | 1600 | 11 | 184 | 8.7 | – |
| CCN(C(=O)c1ccc(C)nc1-n1nccn1)[C@@H](C)COc1ncc(C(F)(F)F)cn1 [Example 30] | 3590 | > 130 | 641 | 5.6 | – |
| CCN(C(=O)c1ccc(OC)nc1-c1ccn(C)n1)[C@@H](C)COc1ccc(C(F)(F)F)cn1 [Example 32] | 106 | 12 | 707 | – | 0.15 |
| CCN(C(=O)c1ccc(C)nc1-n1nccn1)[C@@H](C)COc1cnc(C(F)(F)F)cn1 [Example 33] | 3280 | > 130 | 421 | 7.8 | – |
| CCN(C(=O)c1ncccc1-c1ccn(C)n1)[C@@H](C)COc1ccc(C(F)(F)F)cn1 [Example 34] | 285 | 81 | 190 | 1.5 | – |
| CCN(C(=O)c1cc(F)cnc1-c1ncccn1)[C@@H](C)COc1ncc(C(F)(F)F)cc1F [Example 35] | 3250 | > 130 | 706 | 4.6 | – |
| CCN(C(=O)c1cnccc1-n1nccn1)[C@@H](C)COc1ccc(C(F)(F)F)cn1 [Example 36] | 240 | 15 | 240 | 1 | – |
